The text below walks through data of US20230348418A1, “ISOINDOLINONE COMPOUNDS” (Monte Rosa Therapeutics, Inc., priority 2021, published 2023).

Like-named read-outs stand apart in the source and are kept apart here. Bounds are passed on as bounds.

Test [1] has as its target GSPT1 (Homo sapiens, UniProt P15170+Q96SW2). Put plainly: Immunofluorescence assay for GSPT1 degradation in CAL-51 cells (Example 10). Set-up: host or cells: CAL-51. The format is cell-based. On the procedure:
The representative compounds were tested in an immunofluorescence assay for their activity to degrade GSPT1. […] Compounds were stored at 10 mM DMSO stocks. […] Cells were subsequently rinsed with PBS and fixed in 10% Formalin solution (50 μl, Sigma HT5011)) for 20 mins at room temperature. […] Following three further PBS washes, 50 μL blocking buffer (1% BSA, Sigma A4503, in PBS) was added for 45 min for signal-to noise reduction. Primary antibody (human GSPT1, Sigma HPA052488) was diluted in blocking buffer (dil.1/300, 35 μL/well) and incubated with the cells overnight at 4° C. […] After three final PBS washes, samples were conserved in 100 μL PBS in the dark, until measurement. Image acquisition was performed on the Operetta High-Content Imager (Perkin-Elmer). […] For the determination of GSPT1 DC50 values, a custom algorithm implemented in the PerkinElmer image analysis software Harmony-Acapella® was developed. After user-defined setting of adjustment parameters, the analysis was run identically without human intervention for all image fields.
DAPI staining of the nuclei was used to determine the location of cells using standard nuclei detection modules. Segmentation artifacts were removed by threshold-based filters for area, roundness and intensity. The outline of the cells was determined analogously from the sum of the normalized, smoothed DAPI and Actin channel, starting from each nucleus. […] GSPT1 degradation (DC50) was calculated after normalization to controls and data import in CDD vault Database, using non-linear regression.

The target in test [2] is CRBN-DDB1 (Homo sapiens, UniProt Q96SW2). Kind of test: HTRF binding of compounds to CRBN. As for the experimental part:
Compound activity was monitored in a Homogenous Time-Resolved Fluorescence (HTRF) assay using 1-[5-({2-[2-(2-{[2-(2,6-dioxopiperidin-3-yl)-1,3-dioxo-2,3-dihydro-1H-isoindol-4-yl]oxy}acetamido)ethoxy]ethyl}carbamoyl)pentyl]-3,3-dimethyl-2-[(1E,3E)-5-[(2E)-1,3,3-trimethyl-5-sulfo-2,3-dihydro-1H-indol-2-ylidene]penta-1,3-dien-1-yl]-3H-indol-1-ium-5-sulfonate as a fluorescent probe. […] Compounds were stored in dry, ambient temperatures at 10 mM. A 10-point, 1:3 dilution series was prepared from 10 mM stock concentrations in Echo-compatible LDV plates. 10 nL of each compound dilution series was dispensed into assays wells using an Echo 650 (Labcyte inc. USA). […] The assay was then allowed to incubate for 30 min at ambient temperature after transferring compound. […] Analysis and IC50 values were derived using KNIME analytics (KNIME Zurich) transformation and fitting within Collaborative Drug Discovery (Collaborative Drug Discovery USA). Ki was derived from the geometric mean of the IC50 values using the Cheng-Prustoff transformation.

[3] abbreviates: 6 h, read-out: IF Class (GSPT1 degradation, DC50).
Setting [4] is: read-out: HTRF Class (Cereblon binding, HTRF IC50).

GSPT1, sequence (P15170 whole entry): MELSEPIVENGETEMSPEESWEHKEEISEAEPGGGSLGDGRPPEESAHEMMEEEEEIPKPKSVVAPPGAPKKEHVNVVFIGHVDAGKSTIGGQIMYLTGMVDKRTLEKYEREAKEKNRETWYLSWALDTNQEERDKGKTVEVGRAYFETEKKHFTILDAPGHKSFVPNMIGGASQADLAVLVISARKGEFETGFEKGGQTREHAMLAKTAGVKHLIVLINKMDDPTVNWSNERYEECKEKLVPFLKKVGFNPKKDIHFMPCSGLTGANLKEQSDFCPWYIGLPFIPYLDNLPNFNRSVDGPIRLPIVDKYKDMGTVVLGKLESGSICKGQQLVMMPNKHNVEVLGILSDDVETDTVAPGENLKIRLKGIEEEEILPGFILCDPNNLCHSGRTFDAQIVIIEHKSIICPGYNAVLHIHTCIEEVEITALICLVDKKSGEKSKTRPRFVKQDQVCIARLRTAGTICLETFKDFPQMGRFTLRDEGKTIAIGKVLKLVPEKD
GSPT1, sequence (Q96SW2 whole entry): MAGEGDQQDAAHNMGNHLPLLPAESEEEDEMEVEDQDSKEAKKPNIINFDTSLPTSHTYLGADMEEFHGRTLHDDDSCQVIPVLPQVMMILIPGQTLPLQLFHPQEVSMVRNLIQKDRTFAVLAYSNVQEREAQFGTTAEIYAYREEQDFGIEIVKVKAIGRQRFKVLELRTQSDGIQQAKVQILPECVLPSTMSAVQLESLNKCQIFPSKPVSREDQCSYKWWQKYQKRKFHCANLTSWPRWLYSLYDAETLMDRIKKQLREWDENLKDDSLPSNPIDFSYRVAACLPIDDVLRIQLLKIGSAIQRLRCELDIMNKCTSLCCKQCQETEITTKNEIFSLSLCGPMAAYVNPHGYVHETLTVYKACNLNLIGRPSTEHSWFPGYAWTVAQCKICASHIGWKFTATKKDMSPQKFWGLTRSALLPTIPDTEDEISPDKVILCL
GSPT1, sequence (Q16531 2-1140 partner limits assumed): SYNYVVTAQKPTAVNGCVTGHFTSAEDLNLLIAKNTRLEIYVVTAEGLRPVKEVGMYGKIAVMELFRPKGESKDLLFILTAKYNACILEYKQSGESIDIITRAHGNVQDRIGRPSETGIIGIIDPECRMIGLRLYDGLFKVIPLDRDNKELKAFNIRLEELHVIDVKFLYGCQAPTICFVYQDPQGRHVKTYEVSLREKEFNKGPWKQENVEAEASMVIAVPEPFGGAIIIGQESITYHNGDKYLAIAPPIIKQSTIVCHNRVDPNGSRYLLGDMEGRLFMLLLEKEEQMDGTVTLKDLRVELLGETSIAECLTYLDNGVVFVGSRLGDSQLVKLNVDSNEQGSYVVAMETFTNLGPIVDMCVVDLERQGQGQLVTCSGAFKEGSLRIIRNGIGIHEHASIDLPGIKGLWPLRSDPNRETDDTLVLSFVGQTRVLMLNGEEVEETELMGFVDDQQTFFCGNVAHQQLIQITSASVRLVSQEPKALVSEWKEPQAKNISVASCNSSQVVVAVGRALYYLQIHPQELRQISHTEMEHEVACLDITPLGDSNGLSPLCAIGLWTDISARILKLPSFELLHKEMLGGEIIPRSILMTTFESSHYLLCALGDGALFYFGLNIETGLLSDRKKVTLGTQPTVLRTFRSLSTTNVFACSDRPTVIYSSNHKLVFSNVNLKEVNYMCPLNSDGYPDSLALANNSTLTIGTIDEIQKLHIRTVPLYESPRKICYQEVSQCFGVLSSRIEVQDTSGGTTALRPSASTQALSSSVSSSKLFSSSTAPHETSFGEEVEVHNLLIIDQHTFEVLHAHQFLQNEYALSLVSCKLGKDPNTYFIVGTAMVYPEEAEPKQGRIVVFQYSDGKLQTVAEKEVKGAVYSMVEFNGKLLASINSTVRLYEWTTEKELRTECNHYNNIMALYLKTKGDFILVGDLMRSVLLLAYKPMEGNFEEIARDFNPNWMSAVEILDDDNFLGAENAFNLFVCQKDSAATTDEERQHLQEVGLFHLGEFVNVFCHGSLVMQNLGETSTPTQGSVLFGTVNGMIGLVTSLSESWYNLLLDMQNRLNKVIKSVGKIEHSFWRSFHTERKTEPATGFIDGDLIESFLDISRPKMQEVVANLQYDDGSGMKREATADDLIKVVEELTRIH
CRBN-DDB1, sequence (Q96SW2 whole entry): as the sequence (Q96SW2 whole entry) above
CRBN-DDB1, sequence (Q16531 whole entry partner): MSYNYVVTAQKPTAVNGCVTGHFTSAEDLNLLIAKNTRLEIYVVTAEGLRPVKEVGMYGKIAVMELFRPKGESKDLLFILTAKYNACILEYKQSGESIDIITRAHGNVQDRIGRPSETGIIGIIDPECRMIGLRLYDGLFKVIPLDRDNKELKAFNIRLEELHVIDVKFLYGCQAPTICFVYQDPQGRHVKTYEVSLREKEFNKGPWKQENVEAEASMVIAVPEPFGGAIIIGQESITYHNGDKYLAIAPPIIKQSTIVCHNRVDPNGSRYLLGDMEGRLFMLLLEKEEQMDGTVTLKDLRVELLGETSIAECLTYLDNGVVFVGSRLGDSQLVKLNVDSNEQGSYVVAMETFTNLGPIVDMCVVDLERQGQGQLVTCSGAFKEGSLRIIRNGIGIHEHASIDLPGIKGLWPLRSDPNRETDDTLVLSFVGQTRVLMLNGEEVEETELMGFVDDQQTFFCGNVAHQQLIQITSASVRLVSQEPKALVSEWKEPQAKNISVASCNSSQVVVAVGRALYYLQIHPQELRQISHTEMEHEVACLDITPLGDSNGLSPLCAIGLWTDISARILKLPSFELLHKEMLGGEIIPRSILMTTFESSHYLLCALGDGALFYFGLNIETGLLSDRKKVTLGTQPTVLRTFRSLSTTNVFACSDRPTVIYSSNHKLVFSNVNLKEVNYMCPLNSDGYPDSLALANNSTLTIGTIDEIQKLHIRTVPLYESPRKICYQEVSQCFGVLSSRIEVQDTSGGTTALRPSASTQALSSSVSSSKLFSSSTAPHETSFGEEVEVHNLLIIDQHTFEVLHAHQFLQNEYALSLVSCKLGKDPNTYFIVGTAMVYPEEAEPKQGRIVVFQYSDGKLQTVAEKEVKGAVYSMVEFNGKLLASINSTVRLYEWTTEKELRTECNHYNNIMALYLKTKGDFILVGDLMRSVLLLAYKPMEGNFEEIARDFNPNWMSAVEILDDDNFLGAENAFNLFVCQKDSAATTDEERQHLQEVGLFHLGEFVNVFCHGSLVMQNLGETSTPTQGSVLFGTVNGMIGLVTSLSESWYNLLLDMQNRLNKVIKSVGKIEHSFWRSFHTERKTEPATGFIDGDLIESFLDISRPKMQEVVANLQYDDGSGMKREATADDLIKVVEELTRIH

One may read the DC50 as the concentration at which degradation of the target reaches its halfway point. The term IC50 denotes the concentration that gives 50% inhibition. With `O=C1CCC(N2Cc3ccc(COC(=O)N[C@H]4C[C@H](c5ccccc5)C4)cc3C2=O)C(=O)N1` (some centres unmarked) [Compound 159, (2-(2,6-dioxopiperidin-3-yl)-3-oxoisoindolin-5-yl)methyl((1r,3r)-3-phenylcyclobutyl)carbamate], the DC50 in test [1] (setting [3]) was in the range of 30 to 300 nM. Also, the IC50 in test [2] (setting [4]) was 100 to 1000 nM.

In the case of `CC(C)c1ccc(F)c(NC(=O)OCc2ccc3c(c2)C(=O)N(C2CCC(=O)NC2=O)C3)c1` (centres unmarked) [Compound 205, (2-(2,6-dioxopiperidin-3-yl)-3-oxoisoindolin-5-yl)methyl (2-fluoro-5-isopropylphenyl)carbamate], in test [1] (setting [3]), the DC50 was 30 to 300 nM. Also, in test [2] (setting [4]), the IC50 was in the range of 100 to 1000 nM.

`O=C1CCC(N2Cc3ccc(COC(=O)Nc4cc(F)cc5c4OCC5)cc3C2=O)C(=O)N1` (centres unmarked) [Compound 187, (2-(2,6-dioxopiperidin-3-yl)-3-oxoisoindolin-5-yl)methyl(5-fluoro-2,3-dihydrobenzofuran-7-yl) carbamate]: the DC50 in test [1] (setting [3]) is over 300 nM. Moreover, the IC50 in test [2] (setting [4]) was under 100 nM.

In the case of `O=C1CCC(N2Cc3ccc(COC(=O)Nc4c(F)ccc(Cl)c4F)cc3C2=O)C(=O)N1` (centres unmarked) [Compound 178, (2-(2,6-dioxopiperidin-3-yl)-3-oxoisoindolin-5-yl)methyl (3-chloro-2,6-difluorophenyl)carbamate], the DC50 in test [1] (setting [3]) was over 300 nM. In test [2] (setting [4]), the IC50 lay in the range of 100 to 1000 nM.

As to `CC(C)(C)OC(=O)NC12CC(NC(=O)OCc3ccc4c(c3)C(=O)N(C3CCC(=O)NC3=O)C4)(C1)C2` (centres unmarked) [Compound 196, tert-butyl((2-(2,6-dioxopiperidin-3-yl)-3-oxoisoindolin-5-yl)methyl)bicyclo[1.1.1]pentane-1,3-diyldicarbamate], the DC50 in test [1] (setting [3]) is over 300 nM. Further, in test [2] (setting [4]), the IC50 was under 100 nM.

For `Cc1c(Cl)ccc(NC(=O)OCc2ccc3c(c2)C(=O)N(C2CCC(=O)NC2=O)C3)c1F` (centres unmarked) [Compound 180], the DC50 in test [1] (read-out: IF Class (GSPT1 degradation, DC50), 6 h) was in the range of 30 to 300 nM. The IC50 in test [2] was in the range of 100 to 1000 nM.

Regarding `O=C1CCC(N2Cc3ccc(COC(=O)NC4(c5ccccc5)CC4)cc3C2=O)C(=O)N1` (centres unmarked) [Compound 171, (2-(2,6-dioxopiperidin-3-yl)-3-oxoisoindolin-5-yl)methyl (1-phenylcyclopropyl)carbamate], the DC50 in test [1] (setting [3]) is over 300 nM. The IC50 in test [2] (setting [4]) was in the range of 100 to 1000 nM.

With `Cc1cc(C)nc(NC(=O)OCc2ccc3c(c2)C(=O)N(C2CCC(=O)NC2=O)C3)c1` (centres unmarked) [Compound 161, (2-(2,6-dioxopiperidin-3-yl)-3-oxoisoindolin-5-yl)methyl (4,6-dimethylpyridin-2-yl)carbamate], in test [1] (setting [3]), the DC50 was over 300 nM. The IC50 in test [2] (setting [4]) lay in the range of 100 to 1000 nM.

Regarding `CCc1ccc(F)c(NC(=O)OCc2ccc3c(c2)C(=O)N(C2CCC(=O)NC2=O)C3)c1` (centres unmarked) [Compound 210, (2-(2,6-dioxopiperidin-3-yl)-3-oxoisoindolin-5-yl)methyl (5-ethyl-2-fluorophenyl)carbamate], the DC50 in test [1] (setting [3]) is over 300 nM. Further, the IC50 in test [2] (setting [4]) is under 100 nM.

With `Cc1cccc(NC(=O)OCc2ccc3c(c2)C(=O)N(C2CCC(=O)NC2=O)C3)c1` (centres unmarked) [Compound 160, (2-(2,6-dioxopiperidin-3-yl)-3-oxoisoindolin-5-yl)methyl m-tolylcarbamate], the DC50 in test [1] (setting [3]) was over 300 nM. The IC50 in test [2] (setting [4]) fell in the range of 100 to 1000 nM.

With `CC(C)(C)OC(=O)C12CC(NC(=O)OCc3ccc4c(c3)C(=O)N(C3CCC(=O)NC3=O)C4)(C1)C2` (centres unmarked) [Compound 224, tert-butyl 3-((((2-(2,6-dioxopiperidin-3-yl)-3-oxoisoindolin-5-yl)methoxy)carbonyl)amino)bicyclo[1.1.1]pentane-1-carboxylate], the DC50 in test [1] (setting [3]) lay within 30 to 300 nM. Besides, the IC50 in test [2] (setting [4]) fell in the range of 100 to 1000 nM.

`O=C1CCC(N2Cc3ccc(COC(=O)Nc4cc(OC(F)F)c(F)cc4F)cc3C2=O)C(=O)N1` (centres unmarked) [Compound 218, (2-(2,6-dioxopiperidin-3-yl)-3-oxoisoindolin-5-yl)methyl(5-(difluoromethoxy)-2,4-difluorophenyl) carbamate]: the DC50 in test [1] (setting [3]) was over 300 nM. Besides, in test [2] (setting [4]), the IC50 is under 100 nM.

With `CC(C)(C)[C@H]1C[C@@H](NC(=O)OCc2ccc3c(c2)C(=O)N(C2CCC(=O)NC2=O)C3)C1` (stereo partly drawn) [Compound 184, cis-(2-(2,6-dioxopiperidin-3-yl)-3-oxoisoindolin-5-yl)methyl ((1s,3s)-3-(tert-butyl)cyclobutyl)carbamate], the IC50 in test [2] (setting [4]) was 100 to 1000 nM.

Consider `O=C1CCC(N2Cc3ccc(COC(=O)Nc4cc(OC(F)F)c(F)cn4)cc3C2=O)C(=O)N1` (centres unmarked) [Compound 227, (2-(2,6-dioxopiperidin-3-yl)-3-oxoisoindolin-5-yl)methyl (4-(difluoromethoxy)-5-fluoropyridin-2-yl)carbamate], for which, in test [2] (setting [4]), the IC50 lay in the range of 100 to 1000 nM.

For the molecule `O=C1CCC(N2Cc3ccc(COC(=O)Nc4cc(OC(F)(F)F)c(F)cc4F)cc3C2=O)C(=O)N1` (centres unmarked) [Compound 200, (2-(2,6-dioxopiperidin-3-yl)-3-oxoisoindolin-5-yl)methyl (2,4-difluoro-5-(trifluoromethoxy)phenyl)carbamate], the concentration for half-maximal inhibition (IC50) in test [2] (setting [4]) was in the range of 100 to 1000 nM.

On to `CCOc1ccc(F)c(NC(=O)OCc2ccc3c(c2)C(=O)N(C2CCC(=O)NC2=O)C3)c1` (centres unmarked) [Compound 223, (2-(2,6-dioxopiperidin-3-yl)-3-oxoisoindolin-5-yl)methyl (5-ethoxy-2-fluorophenyl)carbamate], for which, in test [2] (setting [4]), the IC50 is under 100 nM.

Turning to `CC(F)(F)c1ccc(F)c(NC(=O)OCc2ccc3c(c2)C(=O)N(C2CCC(=O)NC2=O)C3)c1` (centres unmarked) [Compound 234], the IC50 in test [2] was under 100 nM.

As for `O=C1CCC(N2Cc3ccc(COC(=O)Nc4cccc(C5CC5)c4)cc3C2=O)C(=O)N1` (centres unmarked) [Compound 216, (2-(2,6-dioxopiperidin-3-yl)-3-oxoisoindolin-5-yl)methyl (3-cyclopropylphenyl)carbamate], the IC50 in test [2] (setting [4]) fell in the range of 100 to 1000 nM.

Consider `O=C1CCC(N2Cc3ccc(COC(=O)Nc4cc(F)c(OC(F)F)c(F)c4)cc3C2=O)C(=O)N1` (centres unmarked) [Compound 206, (2-(2,6-dioxopiperidin-3-yl)-3-oxoisoindolin-5-yl) methyl (4-(difluoromethoxy)-3,5-difluorophenyl)carbamate], for which, in test [2] (setting [4]), the IC50 is 100 to 1000 nM.

On to `O=C1CCC(N2Cc3ccc(COC(=O)NC45C6C7C4C4C5C6C74c4ccccc4)cc3C2=O)C(=O)N1` (centres unmarked) [Compound 225, (2-(2,6-dioxopiperidin-3-yl)-3-oxoisoindolin-5-yl)methyl (4-phenylcuban-1-yl)carbamate], for which the half-maximal inhibitory concentration (IC50) in test [2] (setting [4]) was under 100 nM.

Regarding `CC(C)(C)c1ccc(F)c(NC(=O)OCc2ccc3c(c2)C(=O)N(C2CCC(=O)NC2=O)C3)c1` (centres unmarked) [Compound 235], the IC50 in test [2] is 100 to 1000 nM.

The molecule `O=C1CCC(N2Cc3ccc(COC(=O)NC45CC(N6CCCCC6)(C4)C5)cc3C2=O)C(=O)N1` (centres unmarked) [Compound 198] came in with an IC50 in test [2] of 100 to 1000 nM.

In test [2], `O=C1CCC(N2Cc3ccc(COC(=O)NC45CC(F)(C4)C5)cc3C2=O)C(=O)N1` (centres unmarked) [Compound 190] gave an IC50 of 100 to 1000 nM.

As to `Cc1cc(F)c(NC(=O)OCc2ccc3c(c2)C(=O)N(C2CCC(=O)NC2=O)C3)cc1Br` (centres unmarked) [Compound 197, (2-(2,6-dioxopiperidin-3-yl)-3-oxoisoindolin-5-yl)methyl (5-bromo-2-fluoro-4-methylphenyl)carbamate], the IC50 in test [2] (setting [4]) is under 100 nM.

`O=C1CCC(N2Cc3ccc(COC(=O)Nc4cc(Cl)cc5c4OCC5)cc3C2=O)C(=O)N1` (centres unmarked) [Compound 189] registered a 50% inhibitory concentration (IC50) in test [2] of under 100 nM.

On to `CC(C)(O)c1ccc(NC(=O)OCc2ccc3c(c2)C(=O)N(C2CCC(=O)NC2=O)C3)cc1` (centres unmarked) [Compound 195, (2-(2,6-dioxopiperidin-3-yl)-3-oxoisoindolin-5-yl)methyl (4-(2-hydroxypropan-2-yl)phenyl)carbamate], for which the IC50 in test [2] (setting [4]) was 100 to 1000 nM.

Turning to `CC(C)(O)c1ccc(NC(=O)OCc2ccc3c(c2)C(=O)N(C2CCC(=O)NC2=O)C3)cn1` (centres unmarked) [Compound 199, (2-(2,6-dioxopiperidin-3-yl)-3-oxoisoindolin-5-yl)methyl (6-(2-hydroxypropan-2-yl)pyridin-3-yl)carbamate], the IC50 in test [2] (setting [4]) fell in the range of 100 to 1000 nM.

`O=C1CCC(N2Cc3ccc(COC(=O)Nc4ccc(C5CCC5)cc4F)cc3C2=O)C(=O)N1` (centres unmarked) [Compound 164, (2-(2,6-dioxopiperidin-3-yl)-3-oxoisoindolin-5-yl)methyl (4-cyclobutyl-2-fluorophenyl)carbamate]: the IC50 in test [2] (setting [4]) fell in the range of 100 to 1000 nM.

Consider `O=C1CCC(N2Cc3ccc(COC(=O)Nc4cccc(Cl)c4)cc3C2=O)C(=O)N1` (centres unmarked) [Compound 239, (2-(2,6-dioxopiperidin-3-yl)-3-oxoisoindolin-5-yl)methyl (3-chlorophenyl)carbamate], for which, in test [2] (setting [4]), the IC50 lay in the range of 100 to 1000 nM.
